Results on 30 compounds are retold here after patent US7998974B2, “Fused heterocyclic compounds and their use as sirtuin modulators” (Sirtris Pharmaceuticals, Inc., priority 2005, dated 2011).

A word on the IC50: it is the midpoint of a concentration-inhibition curve. Higher therefore signals weaker potency.

The target in assay [1] is T1, human SIRT3 (Homo sapiens, UniProt Q9NTG7).
T1 sequence (Q9NTG7 102-399): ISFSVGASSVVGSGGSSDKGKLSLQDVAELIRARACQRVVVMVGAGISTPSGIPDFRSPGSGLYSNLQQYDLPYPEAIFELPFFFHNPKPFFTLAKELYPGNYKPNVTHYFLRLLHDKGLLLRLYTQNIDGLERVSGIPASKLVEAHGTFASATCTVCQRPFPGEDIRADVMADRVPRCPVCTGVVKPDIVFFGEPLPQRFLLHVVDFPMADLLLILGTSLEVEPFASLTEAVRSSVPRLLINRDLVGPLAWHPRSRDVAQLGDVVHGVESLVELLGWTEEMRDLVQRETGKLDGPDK
The assay is described as follows: Fluorescence polarization assay to identify modulators of SIRT3 activity. As to conditions: for EC50: activation of SIRT3 (Table 5), read-out: ED50 (the source's name); for IC50: inhibition of SIRT3 (Table 6). It counts as biochemical. The source says:
A fluorescence polarization assay was used to identify modulators of SIRT3 activity. The same assay may be used to identify modulators of any sirtuin protein. The assay utilizes a peptide substrate based on a fragment of Histone H4, a known sirtuin deacetylation target. The substrate contains a peptide having 14 amino acid residues as follows: Biotin-GASSHSK(Ac)VLK(MR121) (SEQ ID NO: 3) wherein K(Ac) is an acetylated lysine residue. The peptide is labeled with the fluorophore MR121 (excitation 635 nm/emission 680 nm) at the C-terminus and biotin at the N-terminus.
The peptide substrate is exposed to a sirtuin protein in the presence of NAD^+ to allow deacetylation of the substrate and render it sensitive to cleavage by trypsin. Trypsin is then added and the reaction is carried to completion (i.e., the deacetylated substrate is cleaved) releasing the MR121 fragment. Streptavidin is then added to the reaction where it can bind both the uncleaved substrate (i.e., any remaining acetylated substrate) and the non-fluorescent portion of the cleaved peptide substrate (i.e., the biotin containing fragment). The fluorescence polarization signal observed for the full length peptide substrate bound to streptavidin is higher than the fluorescence polarization signal observed for the released MR121 C-terminal fragment. Therefore, the fluorescence polarization obtained is inversely proportional to the level of deacetylation (e.g., the signal is inversely proportional to the activity of the sirtuin protein). Results are read on a microplate fluorescence polarization reader (Molecular Devices Spectramax MD) with appropriate excitation and emission filters.
The fluorescence polarization assays may be conducted as follows: 0.5 μM peptide substrate and 50 μM βNAD^+ is incubated with 2 nM of SIRT3 for 60 minutes at 37° C. in a reaction buffer (25 mM Tris-acetate pH8, 137 mM Na—Ac, 2.7 mM K—Ac, 1 mM Mg—Ac, 0.1% Pluronic F127, 10 mM CaCl2, 1 mM TCEP, 0.025% BSA). Test compounds are solubilized in DMSO and are added to the reaction at 11 concentrations ranging from 0.7 μM to 100 μM. The SIRT3 protein used in the assays corresponded to amino acid residues 102-399 of human SIRT3 with an N-terminal His-tag. The protein was overexpressed in E. coli and purified on a nickel chelate column using standard techniques. After the 60 minute incubation with SIRT3, nicotinamide is added to the reaction to a final concentration of 3 mM to stop the deacetylation reaction and 0.5 μg/mL of trypsin is added to cleave the deacetylated substrate. The reaction is incubated for 30 minutes at 37° C. in the presence of 1 mM streptavidin. Fluorescent polarization is determined at excitation (650 nm) and emissions (680 nm) wavelengths. The level of activity of the sirtuin protein in the presence of the various concentrations of test compound are then determined and may be compared to the level of activity of the sirtuin protein in the absence of the test compound, and/or the level of activity of the sirtuin proteins in the negative control (e.g., level of inhibition) and positive control (e.g., level of activation) described below.
A control for activation of sirtuin activity is conducted using 0.5 μg/mL of sirtuin protein to reach baseline deacetylation of the substrate (e.g., to determine normalized sirtuin activity).
In general terms: Fluorescence polarisation rises when a labelled molecule tumbles more slowly, as on binding a larger partner.

The target of assay [2] is T2, SIRT1 (Homo sapiens, UniProt Q96EB6).
T2 sequence (Q96EB6 1-747): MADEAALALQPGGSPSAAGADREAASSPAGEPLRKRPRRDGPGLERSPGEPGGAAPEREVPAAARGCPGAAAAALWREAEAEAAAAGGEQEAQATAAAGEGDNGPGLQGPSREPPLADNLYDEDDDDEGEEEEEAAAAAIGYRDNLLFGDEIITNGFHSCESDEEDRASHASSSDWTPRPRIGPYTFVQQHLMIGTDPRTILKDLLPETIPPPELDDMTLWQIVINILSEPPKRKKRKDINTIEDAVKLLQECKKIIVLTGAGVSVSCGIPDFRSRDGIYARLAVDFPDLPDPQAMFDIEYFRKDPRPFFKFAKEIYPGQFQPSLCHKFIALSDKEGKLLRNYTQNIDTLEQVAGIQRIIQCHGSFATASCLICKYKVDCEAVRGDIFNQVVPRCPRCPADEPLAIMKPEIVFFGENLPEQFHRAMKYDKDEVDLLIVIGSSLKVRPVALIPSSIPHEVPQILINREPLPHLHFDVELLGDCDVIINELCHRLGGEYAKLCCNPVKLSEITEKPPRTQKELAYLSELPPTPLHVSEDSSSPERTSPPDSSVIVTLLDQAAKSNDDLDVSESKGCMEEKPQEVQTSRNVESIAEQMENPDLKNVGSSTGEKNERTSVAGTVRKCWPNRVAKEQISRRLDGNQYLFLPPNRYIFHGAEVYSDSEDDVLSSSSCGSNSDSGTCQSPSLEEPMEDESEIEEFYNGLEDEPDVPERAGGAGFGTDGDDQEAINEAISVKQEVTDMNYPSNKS
The experiment in a line: Fluorescence polarization or mass spectrometry based assay to identify modulators of SIRT1 activity.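 As to all read-outs here: deacetylation of a fluorophore-tagged p53-derived acetyl peptide by SIRT1, detected as fluorescence polarization after trypsin cleavage and streptavidin binding, compounds tested at 11 doses from 0.7 to 100 µM.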 As to conditions: for EC50: activation of SIRT1 (Table 3), read-out: ED50 (the source's name). Format: biochemical.

Regarding `Cc1csc(NC(=O)CSCC(=O)O)c1-c1nc2ccccc2s1` [Compound 5], the EC50 in assay [1] was 101 to 150 µM; in assay [2] it was less than 50 µM.

In the case of `Nc1nc2ccc(-c3nc4ccccc4[nH]3)cc2s1` [Compound 14], the EC50 in assay [1] and in assay [2] was 101 to 150 µM throughout.

Regarding `COc1ccc(-c2nc3c(C(=O)NC(CC(=O)O)C4CCCCC4)cccn3c2NC(C)(C)C)cc1[N+](=O)[O-]` (stereo not shown) [Compound 29], the EC50 in assay [1] and in assay [2] was greater than 150 µM throughout.

Take `N#Cc1ccc(-c2nc3c(C(=O)NC(CC(=O)O)C4CCCCC4)cccn3c2NCc2ccccc2)cc1` (stereo not shown) [Compound 32]: the values for the EC50 in assay [1] and in assay [2] were less than 50 µM and 51 to 100 µM, respectively.

Turning to `CC(=O)Nc1ccc(-c2nc3c(C(=O)NC(CC(=O)O)C4CCCCC4)cccn3c2NCc2ccccc2)cc1` (stereo not shown) [Compound 37], the EC50 was in the range of 101 to 150 µM in assay [1] and 51 to 100 µM in assay [2].

Turning to `CC(NC(=O)c1cccn2c(NCC3CCCO3)c(-c3ccc(Cl)cc3)nc12)C(=O)NCCC#N` (stereo not shown) [Compound 43], the EC50 in assay [1] was 51 to 100 µM; in assay [2], less than 50 µM.

As for `CC(NC(=O)c1cccn2c(NCC3CCCO3)c(-c3ccc(N(C)C)cc3)nc12)C(=O)NCCC#N` (stereo not shown) [Compound 45], the EC50 was greater than 150 µM in assay [1] and 51 to 100 µM in assay [2].

As to `COc1ccc2c(c1)C(=O)C(c1nc3ccccc3s1)C2=O` (stereo not shown) [Compound 62], in assay [2], the EC50 is less than 50 µM.

As for `CN(C)/C=C(\C#N)c1nc2ccccc2[nH]1` [Compound 64], the EC50 in assay [2] was in the range of 51 to 100 µM.

On to `O=C(O)CCC(=O)Nc1cccc(-c2nc3cc4ccccc4cc3[nH]2)c1` [Compound 65], for which the EC50 in assay [2] is greater than 150 µM.

On to `Cc1nc2cc3nc4c5cccc6cccc(c(=O)n4c3cc2[nH]1)c65` [Compound 66], for which, in assay [2], the EC50 was in the range of 101 to 150 µM.

For the compound `COc1ccc(-c2nc3c(C(=O)NC(CC(=O)O)c4cccc(C)c4)cccn3c2Nc2c(C)cccc2C)cc1[N+](=O)[O-]` (stereo not shown) [Compound 67], in assay [1], the EC50 was greater than 150 µM.

As for `COc1cccc(-c2nc3c(C(=O)NC(CC(=O)O)C4CCCCC4)cccn3c2NCc2ccccc2)c1` (stereo not shown) [Compound 69], in assay [1], the EC50 was in the range of 51 to 100 µM.

For `Cc1cccc(C)c1Nc1c(-c2ccc(C#N)cc2)nc2c(C(=O)NC(CC(=O)O)C3CCCCC3)cccn12` (stereo not shown) [Compound 70], in assay [1], the EC50 was greater than 150 µM.

Regarding `CCCCNc1c(-c2ccc(F)cc2)nc2c(C(=O)NC(CC(=O)O)c3cccc([N+](=O)[O-])c3)cccn12` (stereo not shown) [Compound 71], in assay [1], the EC50 fell in the range of 51 to 100 µM.

With `CCCCNc1c(-c2ccc(C#N)cc2)nc2c(C(=O)NC(CC(=O)O)c3cccc([N+](=O)[O-])c3)cccn12` (stereo not shown) [Compound 72], the EC50 in assay [1] lay in the range of 51 to 100 µM.

`COc1ccc(-c2nc3c(C(=O)NC(CC(=O)O)c4cccc([N+](=O)[O-])c4)cccn3c2NCc2ccccc2)cc1[N+](=O)[O-]` (stereo not shown) [Compound 73]: the EC50 in assay [1] is 51 to 100 µM.

For the compound `Cc1cccc(C)c1Nc1c(-c2ccc(C#N)cc2)nc2c(C(=O)NC(CC(=O)O)c3cccc([N+](=O)[O-])c3)cccn12` (stereo not shown) [Compound 74], in assay [1], the EC50 was greater than 150 µM.

Regarding `CCCCNc1c(-c2ccc(OC)c([N+](=O)[O-])c2)nc2c(C(=O)NC(C)C(=O)O)cccn12` (stereo not shown) [Compound 75], in assay [1], the EC50 fell in the range of 51 to 100 µM.

Take `COc1ccc(-c2nc3c(C(=O)NC(C)C(=O)O)cccn3c2NCc2ccccc2)cc1[N+](=O)[O-]` (stereo not shown) [Compound 76]: in assay [1], the EC50 is less than 50 µM.

With `CC(C)(C)Nc1c(-c2ccc(F)cc2)nc2c(C(=O)NC(CC(=O)O)C3CCCCC3)cccn12` (stereo not shown) [Compound 78], the EC50 in assay [1] was 101 to 150 µM.

`O=C(O)CC(NC(=O)c1cccn2c(NCc3ccccc3)c(-c3ccc(F)cc3)nc12)C1CCCCC1` (stereo not shown) [Compound 79]: the EC50 in assay [1] was 51 to 100 µM.

Regarding `COc1ccc(-c2nc3cc(C(=O)NC(CC(=O)O)C4CCCCC4)ccn3c2NC2CCCCC2)cc1OC` (stereo not shown) [Compound 80], the EC50 in assay [1] was 51 to 100 µM.

As to `Cc1ccc(C(CC(=O)O)NC(=O)c2ccn3c(NC4CCCCC4)c(-c4ccc(C#N)cc4)nc3c2)cc1` (stereo not shown) [Compound 81], the EC50 in assay [1] was in the range of 51 to 100 µM.

Turning to `Nc1ccc(-c2nc3ccc(-c4nc5ccc(N)cc5[nH]4)cc3[nH]2)cc1` [Compound 83], in assay [1], the EC50 was greater than 150 µM.

In the case of `COC(=O)CC(=O)Nc1ccccc1-c1nc2ccc(C(=O)NCc3ccc4c(c3)OCO4)cn2c1NC1CCCCC1` [Compound 84], the IC50 in assay [2] (inhibition of SIRT1 (Table 4)) is less than 50 µM.

`Nc1ccc(C(=O)Nc2nc3cc4sc(NC(=O)c5ccc(N)cc5)nc4cc3s2)cc1` [Compound 86] returned an IC50 in assay [1] of 51 to 100 µM.

In assay [1], `Cc1ccccc1C(=O)N1CCN(C(=O)c2cccn3c(NCc4ccccc4)c(C(C)C)nc23)CC1` [Compound 87] had an IC50 of 101 to 150 µM.

Turning to `CN(C)c1ccc(-c2nc3ccc(C(=O)NCC(=O)NCC4CC4)cn3c2NC2CCCCC2)cc1` [Compound 88], in assay [1], the IC50 was less than 50 µM.

`Cc1cc(C(=O)Nc2ccc(-c3nc4ccc(C(=O)NCCCN5CCCC5=O)cn4c3NC3CCCCC3)cc2)no1` [Compound 89] showed an IC50 in assay [1] of 101 to 150 µM.
